Source: patent US8168651B2, “Protein kinase modulators” (Cylene Pharmaceuticals, Inc., priority 2008, dated 2012)

Legend:
Test in all cases: Standardized radiometric kinase assays, percentage of activity at 0.5 μM;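 also: Read-out is ³³P-labelled substrate protein phosphorylated by each kinase, captured on filters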
[1] = molecular target: each individual kinase of the panel (Homo sapiens, UniProt P07948)
[2] = molecular target: each individual kinase of the panel (Homo sapiens, UniProt P34947)
[3] = molecular target: each individual kinase of the panel (Homo sapiens, UniProt O96017, R145W)
[4] = molecular target: each individual kinase of the panel (Homo sapiens, UniProt P05129)
[5] = molecular target: each individual kinase of the panel (Homo sapiens, UniProt Q96PF2)
[6] = molecular target: each individual kinase of the panel (Homo sapiens, UniProt P53778)
[7] = molecular target: each individual kinase of the panel (Homo sapiens, UniProt Q04759)
[8] = molecular target: each individual kinase of the panel (Homo sapiens, UniProt P29322)
Chain of each individual kinase of the panel (Homo sapiens, UniProt P29322) (P29322 28-1005 limits assumed): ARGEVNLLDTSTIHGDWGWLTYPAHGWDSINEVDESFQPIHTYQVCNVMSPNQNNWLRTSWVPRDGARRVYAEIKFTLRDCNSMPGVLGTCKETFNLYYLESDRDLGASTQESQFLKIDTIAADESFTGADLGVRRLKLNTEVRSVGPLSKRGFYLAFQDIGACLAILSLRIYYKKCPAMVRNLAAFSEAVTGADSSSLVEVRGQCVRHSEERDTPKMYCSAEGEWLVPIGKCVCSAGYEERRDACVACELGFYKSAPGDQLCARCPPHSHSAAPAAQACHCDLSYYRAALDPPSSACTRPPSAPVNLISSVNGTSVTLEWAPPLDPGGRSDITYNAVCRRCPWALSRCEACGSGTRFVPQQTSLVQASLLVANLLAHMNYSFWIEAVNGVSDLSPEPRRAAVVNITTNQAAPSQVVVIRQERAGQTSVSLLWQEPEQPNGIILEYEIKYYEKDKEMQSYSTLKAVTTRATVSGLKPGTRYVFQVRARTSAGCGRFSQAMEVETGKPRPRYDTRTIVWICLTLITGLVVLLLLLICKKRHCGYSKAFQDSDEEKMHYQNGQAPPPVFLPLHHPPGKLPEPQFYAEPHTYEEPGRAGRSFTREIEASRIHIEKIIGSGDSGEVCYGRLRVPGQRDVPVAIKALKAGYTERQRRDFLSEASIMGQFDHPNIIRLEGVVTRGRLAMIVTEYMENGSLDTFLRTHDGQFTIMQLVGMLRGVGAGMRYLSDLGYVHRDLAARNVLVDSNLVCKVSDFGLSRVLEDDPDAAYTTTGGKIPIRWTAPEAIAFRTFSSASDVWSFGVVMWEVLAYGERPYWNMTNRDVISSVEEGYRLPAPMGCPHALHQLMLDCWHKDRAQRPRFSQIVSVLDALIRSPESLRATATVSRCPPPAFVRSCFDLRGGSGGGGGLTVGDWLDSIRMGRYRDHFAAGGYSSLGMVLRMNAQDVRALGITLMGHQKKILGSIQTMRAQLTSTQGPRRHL

[9] = molecular target: each individual kinase of the panel (Homo sapiens, UniProt Q9HBY8)
[10] = molecular target: each individual kinase of the panel (Homo sapiens, UniProt P19784)
[11] = molecular target: each individual kinase of the panel (Homo sapiens, UniProt O96017, I157T)
[12] = molecular target: each individual kinase of the panel (Homo sapiens, UniProt P80192)
[13] = molecular target: each individual kinase of the panel (Homo sapiens, UniProt Q86Y07)
[14] = molecular target: each individual kinase of the panel (Homo sapiens, UniProt Q16620)
Chain of each individual kinase of the panel (Homo sapiens, UniProt Q16620) (Q16620 32-822 limits assumed): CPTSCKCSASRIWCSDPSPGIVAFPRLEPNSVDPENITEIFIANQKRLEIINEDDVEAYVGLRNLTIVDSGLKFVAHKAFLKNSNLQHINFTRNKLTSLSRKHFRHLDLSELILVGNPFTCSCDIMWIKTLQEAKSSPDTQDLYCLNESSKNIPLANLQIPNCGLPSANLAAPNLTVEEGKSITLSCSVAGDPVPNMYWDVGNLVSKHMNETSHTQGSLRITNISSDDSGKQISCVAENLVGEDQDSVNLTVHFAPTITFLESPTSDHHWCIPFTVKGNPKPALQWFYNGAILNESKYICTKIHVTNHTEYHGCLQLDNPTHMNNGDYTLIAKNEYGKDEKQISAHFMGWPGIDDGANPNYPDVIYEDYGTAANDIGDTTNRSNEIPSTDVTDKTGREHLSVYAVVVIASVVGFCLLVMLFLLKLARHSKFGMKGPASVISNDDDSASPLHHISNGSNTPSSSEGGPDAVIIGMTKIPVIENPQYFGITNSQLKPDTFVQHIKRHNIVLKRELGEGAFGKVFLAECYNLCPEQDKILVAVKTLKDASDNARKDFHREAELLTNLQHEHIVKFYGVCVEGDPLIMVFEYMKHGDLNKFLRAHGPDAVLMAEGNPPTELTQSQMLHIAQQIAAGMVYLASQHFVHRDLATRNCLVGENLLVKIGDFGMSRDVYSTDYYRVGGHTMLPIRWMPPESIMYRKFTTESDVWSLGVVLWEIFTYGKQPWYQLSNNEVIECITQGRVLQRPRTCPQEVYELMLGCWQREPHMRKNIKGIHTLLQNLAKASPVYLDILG

[15] = molecular target: each individual kinase of the panel (Mus musculus, UniProt P16277)
Chain of each individual kinase of the panel (Mus musculus, UniProt P16277) (P16277 2-499 limits assumed): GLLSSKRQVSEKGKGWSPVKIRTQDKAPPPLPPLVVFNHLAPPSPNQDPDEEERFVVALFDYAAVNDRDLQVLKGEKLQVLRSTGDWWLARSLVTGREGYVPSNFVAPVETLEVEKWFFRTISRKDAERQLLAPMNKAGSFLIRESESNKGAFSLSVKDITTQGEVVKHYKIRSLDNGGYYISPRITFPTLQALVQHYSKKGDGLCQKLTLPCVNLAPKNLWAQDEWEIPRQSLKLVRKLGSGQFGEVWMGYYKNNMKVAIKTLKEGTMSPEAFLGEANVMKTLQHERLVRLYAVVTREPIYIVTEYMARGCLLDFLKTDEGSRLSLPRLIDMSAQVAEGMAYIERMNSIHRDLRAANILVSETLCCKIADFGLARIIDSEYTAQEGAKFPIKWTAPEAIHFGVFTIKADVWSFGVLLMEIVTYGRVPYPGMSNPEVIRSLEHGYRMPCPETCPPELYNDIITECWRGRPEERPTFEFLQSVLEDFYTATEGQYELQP

[16] = molecular target: each individual kinase of the panel (Homo sapiens, UniProt P52333)
[17] = molecular target: each individual kinase of the panel (Homo sapiens, UniProt O96017)
[18] = molecular target: each individual kinase of the panel (Homo sapiens, UniProt O00418)
Chain of each individual kinase of the panel (Homo sapiens, UniProt O00418) (O00418 2-725 limits assumed): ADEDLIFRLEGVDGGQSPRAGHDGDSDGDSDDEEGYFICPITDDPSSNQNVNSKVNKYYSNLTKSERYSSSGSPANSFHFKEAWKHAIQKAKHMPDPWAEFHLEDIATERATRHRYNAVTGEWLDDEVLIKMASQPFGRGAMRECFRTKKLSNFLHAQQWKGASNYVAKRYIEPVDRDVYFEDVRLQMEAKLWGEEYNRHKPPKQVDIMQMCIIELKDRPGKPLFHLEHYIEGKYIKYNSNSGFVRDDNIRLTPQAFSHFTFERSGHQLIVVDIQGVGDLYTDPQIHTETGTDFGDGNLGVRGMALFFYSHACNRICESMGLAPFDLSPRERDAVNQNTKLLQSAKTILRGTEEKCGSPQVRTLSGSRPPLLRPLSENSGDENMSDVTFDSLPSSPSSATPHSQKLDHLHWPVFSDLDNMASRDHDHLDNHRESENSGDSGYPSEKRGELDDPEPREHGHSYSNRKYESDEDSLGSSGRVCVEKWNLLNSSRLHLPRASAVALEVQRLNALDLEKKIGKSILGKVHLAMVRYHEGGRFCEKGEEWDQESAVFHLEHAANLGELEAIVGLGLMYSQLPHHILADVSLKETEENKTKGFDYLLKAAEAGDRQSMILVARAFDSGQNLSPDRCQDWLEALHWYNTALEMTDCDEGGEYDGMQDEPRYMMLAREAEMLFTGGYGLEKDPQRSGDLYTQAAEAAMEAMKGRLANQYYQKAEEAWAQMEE

[19] = molecular target: each individual kinase of the panel (Homo sapiens, UniProt P43250)
[20] = molecular target: each individual kinase of the panel (Homo sapiens, UniProt Q96RG2)
[21] = molecular target: each individual kinase of the panel (Homo sapiens, UniProt O43318)
[22] = molecular target: each individual kinase of the panel (Homo sapiens, UniProt Q9BXA7)
[23] = molecular target: each individual kinase of the panel (Homo sapiens, UniProt Q12866)
Chain of each individual kinase of the panel (Homo sapiens, UniProt Q12866) (Q12866 21-999 limits assumed): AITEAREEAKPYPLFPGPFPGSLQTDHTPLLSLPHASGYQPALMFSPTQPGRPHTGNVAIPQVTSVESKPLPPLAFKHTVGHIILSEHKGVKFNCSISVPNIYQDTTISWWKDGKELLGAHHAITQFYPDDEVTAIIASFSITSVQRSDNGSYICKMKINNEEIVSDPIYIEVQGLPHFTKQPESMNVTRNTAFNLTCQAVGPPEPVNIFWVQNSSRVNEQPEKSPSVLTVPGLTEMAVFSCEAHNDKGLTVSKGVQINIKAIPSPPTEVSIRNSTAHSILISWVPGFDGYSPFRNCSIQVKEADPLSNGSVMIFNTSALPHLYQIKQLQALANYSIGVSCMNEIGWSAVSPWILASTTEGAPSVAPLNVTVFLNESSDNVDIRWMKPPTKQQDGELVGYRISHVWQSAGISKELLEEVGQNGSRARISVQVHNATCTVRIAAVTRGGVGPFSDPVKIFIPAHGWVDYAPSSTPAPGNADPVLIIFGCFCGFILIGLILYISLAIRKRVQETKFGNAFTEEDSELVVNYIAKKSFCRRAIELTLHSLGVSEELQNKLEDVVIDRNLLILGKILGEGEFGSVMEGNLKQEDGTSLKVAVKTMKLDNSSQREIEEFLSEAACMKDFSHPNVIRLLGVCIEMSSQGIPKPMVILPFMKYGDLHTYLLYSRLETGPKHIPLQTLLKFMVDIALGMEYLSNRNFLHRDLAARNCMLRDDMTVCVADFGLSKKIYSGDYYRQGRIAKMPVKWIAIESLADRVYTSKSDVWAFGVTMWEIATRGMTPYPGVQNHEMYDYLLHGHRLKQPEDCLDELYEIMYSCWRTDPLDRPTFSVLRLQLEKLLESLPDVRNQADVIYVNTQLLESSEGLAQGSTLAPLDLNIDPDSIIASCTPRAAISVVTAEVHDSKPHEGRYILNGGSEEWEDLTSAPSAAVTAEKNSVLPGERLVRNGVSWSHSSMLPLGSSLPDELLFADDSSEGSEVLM

[24] = molecular target: each individual kinase of the panel (Homo sapiens, UniProt Q9Y3S1)
[25] = molecular target: each individual kinase of the panel (Homo sapiens, UniProt Q13237)
Chain of each individual kinase of the panel (Homo sapiens, UniProt Q13237) (Q13237 2-762 limits assumed): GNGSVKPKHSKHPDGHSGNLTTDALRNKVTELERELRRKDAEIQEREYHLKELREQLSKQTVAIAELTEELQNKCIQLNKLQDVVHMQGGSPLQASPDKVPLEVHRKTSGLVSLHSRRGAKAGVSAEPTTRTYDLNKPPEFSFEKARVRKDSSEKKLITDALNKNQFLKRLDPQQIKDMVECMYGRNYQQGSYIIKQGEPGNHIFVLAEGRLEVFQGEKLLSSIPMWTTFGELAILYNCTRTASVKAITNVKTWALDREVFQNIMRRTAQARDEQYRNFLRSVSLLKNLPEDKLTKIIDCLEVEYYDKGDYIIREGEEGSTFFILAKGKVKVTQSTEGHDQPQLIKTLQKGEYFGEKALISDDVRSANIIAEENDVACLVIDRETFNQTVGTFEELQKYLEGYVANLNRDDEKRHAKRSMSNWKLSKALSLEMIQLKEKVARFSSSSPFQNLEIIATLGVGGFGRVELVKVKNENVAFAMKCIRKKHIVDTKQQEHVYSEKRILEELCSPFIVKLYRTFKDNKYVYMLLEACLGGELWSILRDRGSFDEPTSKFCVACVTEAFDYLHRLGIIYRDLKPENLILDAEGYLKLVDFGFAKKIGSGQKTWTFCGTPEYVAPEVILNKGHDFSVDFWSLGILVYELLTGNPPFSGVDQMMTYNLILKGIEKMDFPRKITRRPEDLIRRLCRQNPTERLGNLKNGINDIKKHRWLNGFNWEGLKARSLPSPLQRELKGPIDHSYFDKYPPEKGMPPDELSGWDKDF

[26] = molecular target: each individual kinase of the panel (Homo sapiens, UniProt Q9HBH9)

O=C(O)c1ccc2c(c1)nc(Nc1cccc(Cl)c1)c1ccncc12 [drawing 1136]
LYN percentage of activity [1]: 13%
GRK5 percentage of activity [2]: 74%
CHK2(R145W) (h) percentage of activity [3]: 6%
PRKCG percentage of activity [4]: 6%
TSSK2 percentage of activity [5]: −11%
p38-gamma percentage of activity [6]: 21%
PRKCT percentage of activity [7]: −3%
EPHA8 percentage of activity [8]: −10%
SGK2 percentage of activity [9]: 4%
CK2 alpha 2 percentage of activity [10]: 103%
CHK2(1157T) (h) percentage of activity [11]: 15%
MLK1 percentage of activity [12]: 43%
VRK2 percentage of activity [13]: −3%
TRKB percentage of activity [14]: 24%
Blk(m) percentage of activity [15]: 14%
JAK3 percentage of activity [16]: 37%
CHK2 percentage of activity [17]: 20%
eEF−2K(h) percentage of activity [18]: 3%
GRK6 percentage of activity [19]: 44%
PASK percentage of activity [20]: 85%
TAK1 percentage of activity [21]: 4%
TSSK1 percentage of activity [22]: −12%
MER percentage of activity [23]: 82%
WNK2 percentage of activity [24]: 4%
PRKG2 percentage of activity [25]: −10%
Mnk2 percentage of activity [26]: 79%
